31 molecules from patent US9920010B2, “CXCR7 receptor modulators” (IDORSIA PHARMACEUTICALS LTD, priority 2013, dated 2018) can be followed below.

The target of this experiment is T1, CXCR7 (Homo sapiens, UniProt P25106).
T1 construct: host or cells: CHO-K1 (PathHunter CHO-K1 CXCR7 b-arrestin cell line, stably transfected)
Briefly: PathHunter CHO-K1 CXCR7 b-arrestin recruitment assay (CXCR7 agonistic activity). The settings on record: PathHunter CHO-K1 CXCR7 b-arrestin cell line. Format: cell-based. Summed up: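 Stable CHO-K1 line with C-terminally ProLink-tagged CXCR7 and β-arrestin 2–EA fusion; β-arrestin recruitment restores β-gal activity, read by chemiluminescence after 1 h RT detection. Cells seeded 24 h, starved in OPTIMEM 3–4 h, exposed to compounds 90 min at 37 °C in HBSS/HEPES/BSA. Geometric-mean EC50 from repeated measurements.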

T1 sequence (P25106 whole entry): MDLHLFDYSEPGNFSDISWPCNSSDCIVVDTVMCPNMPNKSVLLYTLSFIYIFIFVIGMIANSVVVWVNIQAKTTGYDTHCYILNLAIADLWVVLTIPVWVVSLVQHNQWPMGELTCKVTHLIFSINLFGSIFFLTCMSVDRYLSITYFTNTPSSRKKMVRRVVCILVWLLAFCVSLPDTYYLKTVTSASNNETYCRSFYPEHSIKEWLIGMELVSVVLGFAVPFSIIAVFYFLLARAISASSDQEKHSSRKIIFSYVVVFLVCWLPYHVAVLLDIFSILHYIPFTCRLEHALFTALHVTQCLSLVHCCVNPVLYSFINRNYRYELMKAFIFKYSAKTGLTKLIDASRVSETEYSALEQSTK
T1 sequence (P32121 whole entry partner): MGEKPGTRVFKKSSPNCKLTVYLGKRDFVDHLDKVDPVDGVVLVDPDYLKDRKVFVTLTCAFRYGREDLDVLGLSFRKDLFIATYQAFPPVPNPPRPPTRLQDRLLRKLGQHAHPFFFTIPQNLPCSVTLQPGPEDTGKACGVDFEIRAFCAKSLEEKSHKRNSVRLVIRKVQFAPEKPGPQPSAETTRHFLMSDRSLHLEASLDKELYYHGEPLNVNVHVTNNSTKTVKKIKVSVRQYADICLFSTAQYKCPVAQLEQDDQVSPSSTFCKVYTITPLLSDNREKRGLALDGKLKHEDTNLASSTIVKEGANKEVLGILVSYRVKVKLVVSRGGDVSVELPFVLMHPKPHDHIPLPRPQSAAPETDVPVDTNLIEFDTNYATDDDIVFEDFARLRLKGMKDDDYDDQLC

`CS(=O)(=O)CCN(Cc1ccccc1C(F)(F)F)C(=O)CNc1cccc2c1CCN(CC1CC1)C2` [Example 229, 2-(2-Cyclopropylmethyl-1,2,3,4-tetrahydro-isoquinolin-5-ylamino)-N-(2-methanesulfonyl-ethyl)-N-(2-trifluoromethyl-benzyl)-acetamide] registered an EC50 of 38 nM.
In the case of `CN(C)CCN(Cc1ccccc1C(F)(F)F)C(=O)CNc1cccc2c1CN(C(=O)c1ccccc1)CC2` [compound 552, 2-(2-Benzoyl-1,2,3,4-tetrahydro-isoquinolin-8-ylamino)-N-(2-dimethylamino-ethyl)-N-(2-trifluoromethyl-benzyl)-acetamide], the concentration for a half-maximal effect (EC50) came out at 4 nM.
With `CNCCN(Cc1ccccc1Cl)C(=O)CNc1cccc2c1CCN(CC1CC1)C2` [compound 446, N-(2-Chloro-benzyl)-2-(2-cyclopropylmethyl-1,2,3,4-tetrahydro-isoquinolin-5-ylamino)-N-(2-methylamino-ethyl)-acetamide], a half-maximal effect (EC50) was put at 4 nM.
Under `O=C(CNc1cccc2c1CCN(CC1CC1)C2)N(CCN1CCNCC1)Cc1ccccc1C(F)(F)F` [compound 438, 2-(2-Cyclopropylmethyl-1,2,3,4-tetrahydro-isoquinolin-5-ylamino)-N-(2-piperazin-1-yl-ethyl)-N-(2-trifluoromethyl-benzyl)-acetamide] stands 15 nM; under `CN(C)CCN(Cc1ncccc1Cl)C(=O)CNc1cccc2c1CN(C(=O)[C@H]1C[C@H]1F)CC2` (relative stereo) [compound 459], 59 nM.
As for `CN(C)CCN(Cc1cccc(Br)c1)C(=O)CNc1cccc2c1CCN(CC1CC1)C2` [Example 237, N-(3-Bromo-benzyl)-2-(2-cyclopropylmethyl-1,2,3,4-tetrahydro-isoquinolin-5-ylamino)-N-(2-dimethylamino-ethyl)-acetamide], the EC50 was found to be 5 nM.
Next, `CC(C)(C)CCN(Cc1ncccc1C(F)(F)F)C(=O)CNc1cccc2c1CCN(CC1CC1)C2` [Example 275, 2-(2-Cyclopropylmethyl-1,2,3,4-tetrahydro-isoquinolin-5-ylamino)-N-(3,3-dimethyl-butyl)-N-(3-trifluoromethyl-pyridin-2-ylmethyl)-acetamide]: 43 nM.
Next, `CN(C)CCN(Cc1ccccc1C(F)(F)F)C(=O)CNc1cccc2c1CCN(C(=O)c1ccco1)C2` [Example 572, N-(2-Dimethylamino-ethyl)-2-[2-(furan-2-carbonyl)-1,2,3,4-tetrahydro-isoquinolin-5-ylamino]-N-(2-trifluoromethyl-benzyl)-acetamide]: 5 nM.
Next, `CN(C)CCN(Cc1ccccc1)C(=O)Cc1cccc2c1CCN(CC1CC1)C2` [Example 1, N-Benzyl-2-(2-cyclopropylmethyl-1,2,3,4-tetrahydro-isoquinolin-5-yl)-N-(2-dimethylamino-ethyl)-acetamide]: 79 nM; `CNCCN(Cc1ncccc1C(F)(F)F)C(=O)CNc1cccc2c1CCN(C(=O)OCCF)C2` [compound 425, 5-({[(2-Methylamino-ethyl)-(3-trifluoromethyl-pyridin-2-ylmethyl)-carbamoyl]-methyl}-amino)-3,4-dihydro-1H-isoquinoline-2-carboxylic acid 2-fluoro-ethyl ester]: 27 nM.
`CN1CCC(N(Cc2ccccc2)C(=O)CNc2cccc3c2CCN(CC2CC2)C3)C1` (racemic) [Example 180, rac-N-Benzyl-2-(2-cyclopropylmethyl-1,2,3,4-tetrahydro-isoquinolin-5-ylamino)-N-(1-methyl-pyrrolidin-3-yl)-acetamide] yielded an EC50 of 8 nM.
Take `CCN1CCc2cccc(NCC(=O)N(CCN(C)C(=O)OC(C)(C)C)Cc3ccccc3)c2C1` [compound 493]: the EC50 stood at 249 nM.
As to `CCC(=O)N1CCc2c(cccc2NCC(=O)N(Cc2ccccc2)Cc2ccccn2)C1` [Example 25, N-Benzyl-2-(2-propionyl-1,2,3,4-tetrahydro-isoquinolin-5-ylamino)-N-pyridin-2-ylmethyl-acetamide], the EC50 amounted to 309 nM.
For `CCN1CCc2cccc(NCC(=O)N(CCC(C)C)Cc3ccccc3C(F)(F)F)c2C1` [compound 513], the EC50 stood at 377 nM.
In turn, `O=C(CNc1cccc2c1CCN(CC1CC1)C2)N(CCN1CCC(F)(F)CC1)Cc1ccccc1Cl` [Example 248, N-(2-Chloro-benzyl)-2-(2-cyclopropylmethyl-1,2,3,4-tetrahydro-isoquinolin-5-ylamino)-N-[2-(4,4-difluoro-piperidin-1-yl)-ethyl]-acetamide] returned an EC50 of 32 nM.
For `CN(C)CCN(Cc1ccc(F)cc1C(F)(F)F)C(=O)CNc1cccc2c1CCN(CC1CC1)C2` [Example 54, 2-(2-Cyclopropylmethyl-1,2,3,4-tetrahydro-isoquinolin-5-ylamino)-N-(2-dimethylamino-ethyl)-N-(4-fluoro-2-trifluoromethyl-benzyl)-acetamide], the EC50 was found to be 7 nM.
Next, `CN(C)CCN(Cc1ccccc1C(F)(F)F)C(=O)CNc1cccc2c1CCN(C(=O)[C@H]1C[C@H]1F)C2` (racemic) [Example 363, rac-N-(2-Dimethylamino-ethyl)-2-[2-((1R*,2R*)-2-fluoro-cyclopropanecarbonyl)-1,2,3,4-tetrahydro-isoquinolin-5-ylamino]-N-(2-trifluoromethyl-benzyl)-acetamide]: 3 nM; `CN(C)CCN(Cc1ccccc1C(F)(F)F)C(=O)CNc1cccc2c1C(C)(C)CN(C(=O)OC(C)(C)C)C2` [Example 90, 5-({[(2-Dimethylamino-ethyl)-(2-trifluoromethyl-benzyl)-carbamoyl]-methyl}-amino)-4,4-dimethyl-3,4-dihydro-1H-isoquinoline-2-carboxylic acid tert-butyl ester]: 32 nM.
Consider `CN(C)CCN(Cc1ccccc1C(F)(F)F)C(=O)CNc1cccc2c1CCN(CC1(C)COC1)C2` [Example 358, N-(2-Dimethylamino-ethyl)-2-[2-(3-methyl-oxetan-3-ylmethyl)-1,2,3,4-tetrahydro-isoquinolin-5-ylamino]-N-(2-trifluoromethyl-benzyl)-acetamide], for which the response was half-maximal at 26 nM (EC50).
With `CCN1CCc2cccc(NCC(=O)N(CCN(C)C)Cc3ncccc3C(F)(F)F)c2C1` [compound 531, N-(2-Dimethylamino-ethyl)-2-(2-ethyl-1,2,3,4-tetrahydro-isoquinolin-8-ylamino)-N-(3-trifluoromethyl-pyridin-2-ylmethyl)-acetamide], the 50% effective concentration (EC50) came to 6 nM.
Under `CN(C)CCN(Cc1cccc(C(F)(F)F)n1)C(=O)CNc1cccc2c1CCN(CC1CC1)C2` [Example 46, 2-(2-Cyclopropylmethyl-1,2,3,4-tetrahydro-isoquinolin-5-ylamino)-N-(2-dimethylamino-ethyl)-N-(6-trifluoromethyl-pyridin-2-ylmethyl)-acetamide] stands 3 nM.
Next, `COCCN1CCc2c(/C=C/C(=O)N(CCC(C)(C)O)Cc3ccccc3C(F)(F)F)cccc2C1` [Example 325, (E)-N-(3-Hydroxy-3-methyl-butyl)-3-[2-(2-methoxy-ethyl)-1,2,3,4-tetrahydro-isoquinolin-5-yl]-N-(2-trifluoromethyl-benzyl)-acrylamide]: 334 nM; `CN(CCN(Cc1ccccc1C(F)(F)F)C(=O)CNc1cccc2c1CCN(CC1CC1)C2)C(=O)OC(C)(C)C` [Example 83, {2-[[2-(2-Cyclopropylmethyl-1,2,3,4-tetrahydro-isoquinolin-5-ylamino)-acetyl]-(2-trifluoromethyl-benzyl)-amino]-ethyl}-methyl-carbamic acid tert-butyl ester]: 88 nM; `CN(C)CCN(Cc1ccccc1)C(=O)CNc1cccc2c1CCN(CC1CC1)C2` [compound 110, N-Benzyl-2-(2-cyclopropylmethyl-1,2,3,4-tetrahydro-isoquinolin-5-ylamino)-N-(2-dimethylamino-ethyl)-acetamide]: 14 nM.
Next, `Cc1cccc(CN(C(=O)CNc2cccc3c2CCN(CC2CC2)C3)C2CC2)c1C` [Example 69, N-Cyclopropyl-2-(2-cyclopropylmethyl-1,2,3,4-tetrahydro-isoquinolin-5-ylamino)-N-(2,3-dimethyl-benzyl)-acetamide]: 418 nM; `C=CCN1CCc2cccc(NCC(=O)N(CCN(C)C)Cc3ccccc3OC(F)(F)F)c2C1` [compound 464, 2-(2-Allyl-1,2,3,4-tetrahydro-isoquinolin-8-ylamino)-N-(2-dimethylamino-ethyl)-N-(2-trifluoromethoxy-benzyl)-acetamide]: 36 nM; `O=C(CNc1cccc2c1CCN(CC1CC1)C2)N(CCN1CCCC1)Cc1ccc(F)cc1Cl` [Example 50, N-(2-Chloro-4-fluoro-benzyl)-2-(2-cyclopropylmethyl-1,2,3,4-tetrahydro-isoquinolin-5-ylamino)-N-(2-pyrrolidin-1-yl-ethyl)-acetamide]: 6 nM.
As for `CCC(=O)N1CCc2c(CCC(=O)N(CCN(C)C)Cc3ccccc3)cccc2C1` [Example 162, N-Benzyl-N-(2-dimethylamino-ethyl)-3-(2-propionyl-1,2,3,4-tetrahydro-isoquinolin-5-yl)-propionamide], the EC50 was found to be 46 nM.
Under `CCN1CCc2cccc(NCC(=O)N(CCN3CCCC3)Cc3ccccc3)c2C1` [compound 509, N-Benzyl-2-(2-ethyl-1,2,3,4-tetrahydro-isoquinolin-8-ylamino)-N-(2-pyrrolidin-1-yl-ethyl)-acetamide] stands 36 nM; under `COCCN1CCc2c(/C=C/C(=O)N(CCN(C)C)Cc3ccccc3C(F)(F)F)cccc2C1` [Example 317, (E)-N-(2-Dimethylamino-ethyl)-3-[2-(2-methoxy-ethyl)-1,2,3,4-tetrahydro-isoquinolin-5-yl]-N-(2-trifluoromethyl-benzyl)-acrylamide], 5 nM; under `CN(C)CCN(Cc1ccccc1)C(=O)CNc1cccc2c1CCN(Cc1ccco1)C2` [compound 118], 126 nM.

In general, EC50 refers to the concentration needed to bring the measured effect to its halfway point. A higher EC50 goes with a need for much substance.
